The values below come from ChEMBL document CHEMBL5233242, “Dihydrofolate reductase inhibitors for use as antimicrobial agents” (Eur J Med Chem, 2020).

In brackets after ≈: the same amount, converted by molar mass. Some results are limits rather than exact numbers.

Assay [1] concerns Mycobacterium tuberculosis. Kind of assay: Antibacterial activity against extensively drug-resistant Mycobacterium tuberculosis 5. The class given is functional.
Assay [2] has as its system Mycobacterium tuberculosis. The assay can be described thus: Antibacterial activity against multi drug-resistant Mycobacterium tuberculosis 365. It is filed as functional.

Consider `CCc1nc(N)nc(N)c1C#CCc1cc(OC)cc(-c2ccc(C(=O)O)cc2)c1`, for which the minimum inhibitory concentration (MIC) was found to be 4.97 µM (≈ 2 µg/mL) in assay [1] and 0.311 µM (≈ 0.125 µg/mL) in assay [2].

On to `CCc1nc(N)nc(N)c1C#C[C@H](C)c1cc(OC)cc(-c2ccc(C(=O)O)cc2)c1`, for which the MIC in assay [1] is 0.6 µM (≈ 0.25 µg/mL); in assay [2], less than 0.072 µM.

Broadly, the MIC is the least concentration at which growth counts as inhibited. Low readings indicate greater potency, high ones weaker potency.
